Experiments:
[1] = Cytotoxicity against human HepG2 cells assessed as inhibition of cell growth incubated for 72 hrs by CCK8 assay; assay type: toxicity, cell-based
[2] = Cytotoxicity against HEK293T cells assessed as inhibition of cell growth incubated for 72 hrs by CCK8 assay; assay type: toxicity, cell-based, HEK-293T; conditions: human
[3] = tested on: Plasmodium falciparum; assay: microbe, parasite or virus in culture; conditions: 3D7, 72 h
Description: Antimalarial activity against erythrocytic stage of Plasmodium falciparum 3D7 assessed as inhibition of growth incubated for 72 hrs by SYBR green I based assay

[4] = Selectivity index, ratio of IC50 for HEK293T cells to IC50 for erythrocytic stage of Plasmodium falciparum 3D7; assay type: toxicity, cell-based; conditions: human, read-out: Ratio IC50
[5] = tested on: Plasmodium falciparum; assay: microbe, parasite or virus in culture; conditions: Dd2, 72 h
Description: Antimalarial activity against erythrocytic stage of chloroquine-resistant Plasmodium falciparum Dd2 assessed as inhibition of growth incubated for 72 hrs by SYBR green I based assay

[6] = Selectivity index, ratio of IC50 for human HepG2 cells to IC50 for erythrocytic stage of Plasmodium falciparum 3D7; assay type: toxicity, cell-based; conditions: read-out: Ratio IC50
[7] = tested on: Plasmodium falciparum; assay: Antimalarial activity against sulfadoxine-pyrimethamine and mefloquine resistant Plasmodium falciparum clinical isolate CP286 assessed as inhibition of growth incubated for 72 hrs by SYBR green I based assay; assay type: functional, organism-based

Structure (SMILES)	IC50 at 72 h [1] [nM]	IC50 at 72 h [2] [nM]	IC50 [3] [nM]	selectivity ratio [4]	IC50 [5] [nM]	selectivity ratio [6]	IC50 [7] [nM]
O=C(NO)c1cnc(N[C@H]2CC[C@@H](NCc3ccc4ccc5cccc6ccc3c4c56)CC2)nc1	2130	2640	30.3	87	28.8	70	
O=C(NO)c1cnc(N[C@H]2CC[C@@H](NCc3cc4ccccc4s3)CC2)nc1	1440	2380	21.8	109	26.4	66	
O=C(NO)c1cnc(N[C@H]2CC[C@@H](NCc3cnc4ccccc4c3)CC2)nc1	3340	4360	27.1	161	37.6	123	
O=C(NO)c1cnc(N[C@H]2CC[C@@H](NCc3ccc4ccccc4n3)CC2)nc1	2430	2890	10.4	278	14.3	233	
O=C(NO)c1cnc(N[C@H]2CC[C@@H](NCc3c4ccccc4cc4ccccc34)CC2)nc1	858	1030	9	114	7.5	95	
O=C(NO)c1cnc(N[C@H]2CC[C@@H](NCc3cc4ccccc4c4ccccc34)CC2)nc1	1290	2010	10.7	187	12.3	120	
Cn1cc(CN[C@H]2CC[C@@H](Nc3ncc(C(=O)NO)cn3)CC2)c2cccnc21	> 10000	> 10000	47.9	> 209	53.9	> 209	
O=C(NO)c1cnc(N[C@H]2CC[C@@H](NCc3csc4ccccc34)CC2)nc1	1360	1940	25.3	77	34.8	54	
Cn1nc(CN[C@H]2CC[C@@H](Nc3ncc(C(=O)NO)cn3)CC2)c2ccccc21	5790	5740	27.3	210	31.2	212	
Cn1cc(CN[C@H]2CC[C@@H](Nc3ncc(C(=O)NO)cn3)CC2)c2ncccc21	> 10000	1250	46.7	27	38.3	> 214	
O=C(NO)c1cnc(N[C@H]2CC[C@@H](NCc3ccc4cc(F)ccc4n3)CC2)nc1	3620	2380	11.2	213	15.8	324	
Cn1cc(CN[C@H]2CC[C@@H](Nc3ncc(C(=O)NO)cn3)CC2)c2ccc(Cl)cc21	2500	3650	17.1	213	18	146	
Cn1cc(CN[C@H]2CC[C@@H](Nc3ncc(C(=O)NO)cn3)CC2)c2cnccc21	> 10000	> 10000	63.8	> 157	51.3	> 157	
O=C(NO)c1cnc(N[C@H]2CC[C@@H](NCc3ccccc3)CC2)nc1		4620		44	54.6		
Cn1cc(CN[C@H]2CC[C@@H](Nc3ncc(C(=O)NO)cn3)CC2)c2ccc(F)cc21	3190	6000	12	501	14.5	267	
O=C(NO)c1cnc(N[C@H]2CC[C@@H](NCc3cccnc3)CC2)nc1	4580	4240	114	37	56.5	40	
O=C(NO)c1cnc(N[C@H]2CC[C@@H](NCc3ccncc3)CC2)nc1	> 10000	> 10000	156	> 64	186	> 64	
O=C(NO)c1cnc(N[C@H]2CC[C@@H](NCc3ccsc3)CC2)nc1	> 10000	> 10000	132	> 76	71.2	> 76	

Structure (SMILES)	IC50 at 72 h [1] [nM]	IC50 at 72 h [2] [nM]	IC50 [3] [nM]	selectivity ratio [4]	IC50 [5] [nM]	selectivity ratio [6]	IC50 [7] [nM]
O=C(NO)c1cnc(N[C@H]2CC[C@@H](NCC3CCCCC3)CC2)nc1	5840	3630	87.6	41	53.4	67	
Cn1cc(CN[C@H]2CC[C@@H](Nc3ncc(C(=O)NO)cn3)CC2)c2ccc(Br)cc21	2220	4830	22.2	217	19	100	
O=C(NO)c1cnc(N[C@H]2CC[C@@H](NCc3ccccn3)CC2)nc1	> 10000	> 10000	138	> 72	210	> 72	
O=C(NO)c1cnc(N[C@H]2CC[C@@H](NCc3ccoc3)CC2)nc1	> 10000	> 10000	109	> 91	106	> 91	
O=C(NO)c1cnc(N[C@H]2CC[C@@H](NCc3coc4ccccc34)CC2)nc1	2580	3110	50.8	61	35.5	51	
O=C(NO)c1cnc(N[C@H]2CC[C@@H](NCc3cccc4ccncc34)CC2)nc1	7080	7080	43.4	163	62.1	163	
O=C(NO)c1cnc(N[C@H]2CC[C@@H](NCc3ccnc4ccccc34)CC2)nc1	7120	> 10000	57	> 176	54	125	
CCc1nc(N)nc(N)c1-c1ccc(Cl)cc1 [PYRIMETHAMINE]			24.8				> 50000
O=C(NO)c1cnc(N[C@H]2CC[C@@H](NCc3ccc4ncccc4c3)CC2)nc1	6380	6980	44.5	157	47.2	143	
O=C(NO)c1cnc(N[C@H]2CC[C@@H](NCC3CCCC3)CC2)nc1	5490	5880	100	59	70.1	55	
O=C(NO)c1cnc(N[C@H]2CC[C@@H](NCc3ccc4ccccc4c3)CC2)nc1	1130	1790	15.4	116	15.4	73	
Cn1cc(CN[C@H]2CC[C@@H](Nc3ncc(C(=O)NO)cn3)CC2)c2ccccc21	1770	4310	10.8	399	11.9	163	
O=C(NO)c1cnc(N[C@H]2CC[C@@H](NCc3cccc4cccnc34)CC2)nc1	> 10000	> 10000	65.6	> 152	53.6	> 152	
Cn1c(CN[C@H]2CC[C@@H](Nc3ncc(C(=O)NO)cn3)CC2)nc2ccccc21	> 10000	> 10000	19.6	> 510	26.4	> 510	
Cn1cc(CN[C@H]2CC[C@@H](Nc3ncc(C(=O)NO)cn3)CC2)c2ccncc21	> 10000	> 10000	52.1	> 192	49.4	> 192	
O=C(NO)c1cnc(N[C@H]2CC[C@@H](NCc3cccc4ccccc34)CC2)nc1	642	1530	34.3	47	39.5	19	
O=C(NO)c1cnc(N[C@H]2CC[C@@H](NCc3ccc(-c4ccccc4)cc3)CC2)nc1	2000	2180	92.1	24	179	22	

Reference: ChEMBL document CHEMBL6096636 (Bioorg Med Chem, 2024)
